As a reminder, the EC50 is the concentration needed to bring the measured effect to its halfway point. Read a high EC50 as weaker potency.

The text below walks through data of patent US20100267712A1, “ISOINDOLINE COMPOUNDS FOR THE TREATMENT OF SPINAL MUSCULAR ATROPHY AND OTHER USES” (The United States of America, as represented by the …, priority 2007, published 2010).

The test system of this assay is SMN2-linked luciferase-reporter gene construct. The assay is described as follows: SMN Splice Reporter Assay (SMN2-linked luciferase reporter). The class given is cell-based. The following applies: for EC50: cervical carcinoma cell lines, SMN2 splice luciferase reporter; for Fold Increase: fold-increase of luciferase over baseline reading of transformed cells without any test compound. From the text:
As previously discussed, SMN1 is the gene deleted in SMA patients; the SMN2 gene remains intact in both SMA and normal patients. Therefore, SMN2 provides a potential means of increasing SMN production in SMA patients and is, thus, a target for developing SMA treatments. SMN2 is identical to SMN1 with the exception of a single base pair change that results in reduced expression of the gene. The reduction is based on the creation of an alternatively spliced RNA that produces an unstable protein carrying a deletion of exon 7. Both full length SMN and exon 7 deleted SMN are produced by the SMN2 gene via alternative RNA splicing, but the major product is the unstable deleted form.
Cervical carcinoma cell lines were transformed with a SMN2-linked luciferase-reporter gene construct. The reporter is designed to detect shifts in the alternative splicing of SMN2 sequences. In particular, the reporter is constructed as a fusion of the alternatively spliced sequences of the SMN2 gene and the luciferase gene. Luciferase sequences are in the correct translational reading frame only when the SMN2 sequences are spliced according to the normal SMN1 mechanism (e.g., splicing to include exon 7), which allows for translation of the stable SMN protein. Compounds were tested in the assay by administering the compound to the cell line and detecting an increase in the luciferase activity. The assay is described in greater detail in Zhang et al., Gene Ther., 8: 1532-8 (2001). Compounds were administered as described in Lunn et al, Chem. & Biol, 11: 1489-1493 (2004).
The results are reported as a fold-increase over a baseline reading of transformed cells without any test compound. The EC50 value also is reported in Table 1 for some exemplary compounds of the invention.
(In general: Reporter assays use an easily measured gene product as a stand-in for the process of interest.)

`COCn1ccc2ccc(N3Cc4ccc(OC)cc4C3=O)cc21` [Example 120431]: the response was half-maximal at 120 nM (EC50) and the “Fold Increase” value worked out at 1.311.
`COc1ccc2c(c1)C(=O)N(c1ccc3c(c1)n(C)c(=O)n3C)C2` [Example 120432]: a half-maximal response (EC50) required 830 nM and the “Fold Increase” value stood at 1.234.
Taken in the same sequence, the figures for `COc1ccc2c(c1)C(=O)N(c1ccc3[nH]c(=O)[nH]c3c1)C2` [Example 120433] were 977 nM and 1.296.
With `Cc1ccc2c(c1)CN(c1ccc3ccn(C)c3c1)C2=O` [Example 120434], it took 54 nM to reach a half-maximal effect (EC50) and the “Fold Increase” value is listed as 1.708.
For `Cn1ccc2ccc(N3Cc4ccccc4C3=O)cc21` [Example 120435] the same measures were 640 nM and 1.585.
In the case of `Cn1ccc2ccc(N3Cc4ccc(OC(F)F)cc4C3=O)cc21` [Example 120591], a half-maximal effect (EC50) was put at 509 nM and the “Fold Increase” value was found to be 1.709.
Taken in the same sequence, the figures for `Cn1ccc2cc(N3Cc4cc(Br)ccc4C3=O)ccc21` [Example 120592] were 112 nM and 1.51.
For `COc1ccc2c(c1)C(=O)N(c1ccc3sc(C)nc3c1)C2` [Example 120593] the same measures were 14 nM and 1.322.
For `COc1ccc2c(c1)C(=O)N(c1ccc3c(c1)c(C)c(C)n3C)C2` [Example 120597] the same measures were 777 nM and 1.434.
For the compound `COc1ccc2c(c1)C(=O)N(c1ccc3ncn(C)c3c1)C2` [Example 120598], the midpoint of the response, the EC50, lay at 183 nM and the “Fold Increase” value is 1.552.
Taken in the same sequence, the figures for `COc1ccc2c(c1)C(=O)N(c1ccc3ccn(CC#N)c3c1)C2` [Example 120603] were 2770 nM and 1.199.
Take `Cn1ccc2cc(N3Cc4cc(Cl)ccc4C3=O)ccc21` [Example 120778]: the EC50 came to 131 nM and the “Fold Increase” value amounted to 1.492.
Taken in the same sequence, the figures for `Cn1ccc2ccc(N3Cc4cc(Cl)ccc4C3=O)cc21` [Example 120779] were 317 nM and 1.704.
Consider `Cc1ccc2c(c1)CN(c1ccc3c(ccn3C)c1)C2=O` [Example 120780], for which the “Fold Increase” value stood at 1.344.
In the case of `COc1ccc2c(c1)CN(c1ccc3c(ccn3C)c1)C2=O` [Example 120782], the EC50 came out at 184 nM and the “Fold Increase” value is given as 1.49.
Taken in the same sequence, the figures for `COc1ccc2c(c1)C(=O)N(c1ccc3scnc3c1)C2` [Example 120785] were 59 nM and 1.353.
Regarding `Cn1ccc2cc(N3Cc4c(Cl)cccc4C3=O)ccc21` [Example 120786], the EC50 came to 679 nM and the “Fold Increase” value is listed as 1.376.
Taken in the same sequence, the figures for `O=C1c2cc3c(cc2CN1c1ccc2ncccc2c1)OCCO3` [Example 120787] were 15 nM and 1.807.
In the case of `Cn1ccc2ccc(N3Cc4c(Cl)cccc4C3=O)cc21` [Example 120788], the “Fold Increase” value is recorded as 1.25.
Take `COc1cc2c(cc1OC)C(=O)N(c1ccc3c(ccn3C)c1)C2` [Example 120789]: the EC50 worked out at 9790 nM and the “Fold Increase” value amounted to 1.427.
`Cn1ccc2ccc(N3Cc4cccc(Cl)c4C3=O)cc21` [Example 120792]: the midpoint of the response, the EC50, lay at 238 nM and the “Fold Increase” value came to 1.642.
For `Cn1ccc2cc(N3Cc4cccc(Cl)c4C3=O)ccc21` [Example 120793] the same measures were 361 nM and 1.395.
For `Cn1ccc2ccc(N3Cc4ccc(-c5ccccc5)cc4C3=O)cc21` [Example 120949] the same measures were 373 nM and 1.816.
Taken in the same sequence, the figures for `Cn1ccc2ccc(N3Cc4ccc(Cl)cc4C3=O)cc21` [Example 120950] were 984 nM and 1.482.
As for `COc1ccc2c(c1)CN(c1ccc3ncccc3c1)C2=O` [Example 120951], the EC50 amounted to 135 nM and the “Fold Increase” value stood at 1.769.
Taken in the same sequence, the figures for `Cc1cccc2c1CN(c1ccc3c(ccn3C)c1)C2=O` [Example 120952] were 414 nM and 1.374.
As for `Cc1cccc2c1CN(c1ccc3ccn(C)c3c1)C2=O` [Example 120953], a half-maximal effect (EC50) was put at 1160 nM and the “Fold Increase” value was found to be 1.495.
For `COc1cc2c(cc1OC)C(=O)N(c1ccc3ncccc3c1)C2` [Example 120954] the same measures were 2040 nM and 1.356.
Taken in the same sequence, the figures for `COc1cccc2c1CN(c1ccc3ncccc3c1)C2=O` [Example 120956] were 1250 nM and 1.329.
On to `COc1ccc2c(c1)C(=O)N(c1ccc3ocnc3c1)C2` [Example 120957], for which the “Fold Increase” value was found to be 1.254.
Take `CC(=O)Nc1cccc2c1CN(c1ccc3c(ccn3C)c1)C2=O` [Example 121074]: the “Fold Increase” value is listed as 1.078.
On the same count and under the same terms, next, `CC(=O)Nc1cccc2c1CN(c1ccc3ccn(C)c3c1)C2=O` [Example 121075]: 1.087.
With `COc1ccc2c(c1)C(=O)N(c1ccc3c(ccn3C(C)=O)c1)C2` [Example 121076], the EC50 is 49 nM and the “Fold Increase” value is 1.295.
In the case of `COc1ccc2c(c1)C(=O)N(c1ccc3c(c1)CC(=O)N3)C2` [Example 121077], the “Fold Increase” value is on record as 1.107.
On to `COc1ccc2c(c1)C(=O)N(c1cnc3[nH]ccc3c1)C2` [Example 121078], for which the “Fold Increase” value was 1.246.
Take `COc1ccc2c(c1)C(=O)N(c1cnc3c(ccn3C)c1)C2` [Example 121079]: the EC50 was 42 nM and the “Fold Increase” value stood at 1.385.
As for `COc1ccc2c(c1)C(=O)N(c1ccc3ccn(CCN)c3c1)C2` [Example 121080], the “Fold Increase” value is given as 1.163.
Consider `CC(=O)Nc1cccc2c1C(=O)N(c1ccc3c(ccn3C)c1)C2` [Example 121081], for which a half-maximal effect (EC50) was put at 177 nM and the “Fold Increase” value is on record as 1.581.
For `CC(=O)Nc1cccc2c1C(=O)N(c1ccc3ccn(C)c3c1)C2` [Example 121082] the same measures were 825 nM and 1.496.
In the case of `COc1ccc2c(c1)C(=O)N(c1ccc3ccn(CCNC(C)=O)c3c1)C2` [Example 121083], the “Fold Increase” value is listed as 1.083.
Regarding `Cn1ccc2ccc(N3Cc4ccc(N)cc4C3=O)cc21` [Example 121256], the EC50 was 1590 nM and the “Fold Increase” value came to 1.638.
With `Cn1ccc2ccc(N3Cc4cc(N)ccc4C3=O)cc21` [Example 121257], the EC50 was 175 nM and the “Fold Increase” value is on record as 1.856.
Consider `COc1ccc2c(c1)C(=O)N(c1ccc3ccn(C(C)=O)c3c1)C2` [Example 121260], for which the EC50 came out at 35 nM and the “Fold Increase” value is listed as 1.414.
On to `COc1ccc2c(c1)C(=O)N(c1ccc3ncoc3c1)C2` [Example 121262], for which the EC50 is 336 nM and the “Fold Increase” value was 1.317.
Take `COc1ccc2c(c1)C(=O)N(c1ccc3c(ccn3C)n1)C2` [Example 121263]: the EC50 was found to be 161 nM and the “Fold Increase” value stood at 1.39.
Regarding `Cc1ccc2c(c1)C(=O)N(c1ccc3ccn(C)c3c1)C2` [Example 121504], the midpoint of the response, the EC50, lay at 422 nM and the “Fold Increase” value was 1.742.
Taken in the same sequence, the figures for `CC(=O)Nc1ccc2c(c1)CN(c1ccc3ccn(C)c3c1)C2=O` [Example 121506] were 1040 nM and 1.488.
On to `Cc1ccc2c(c1)C(=O)N(c1ccc3c(ccn3C)c1)C2` [Example 121507], for which the concentration for a half-maximal effect (EC50) came to 34 nM and the “Fold Increase” value was determined as 1.411.
Consider `CC(=O)Nc1ccc2c(c1)CN(c1ccc3c(ccn3C)c1)C2=O` [Example 121508], for which the “Fold Increase” value amounted to 1.201.
Consider `COc1cccc2c1CN(c1ccc3sccc3c1)C2=O` [Example 121509], for which the EC50 was found to be 3710 nM and the “Fold Increase” value was found to be 1.564.
For `Cn1ccc2cc(N3Cc4ccc(O)cc4C3=O)ccc21` [Example 121510] the same measures were 159 nM and 1.542.
As to `COc1ccc2c(c1)CN(c1ccc3ccsc3c1)C2=O` [Example 121511], the midpoint of the response, the EC50, lay at 113 nM and the “Fold Increase” value was 1.808.
For `O=C1c2cc(OC(F)F)ccc2CN1c1ccc2ccsc2c1` [Example 121512] the same measures were 226 nM and 1.766.
For `COc1cccc2c1CN(c1ccc3ccsc3c1)C2=O` [Example 121513] the same measures were 749 nM and 1.612.
As to `COc1ccc2c(c1)C(=O)N(c1cc3cc[nH]c3cn1)C2` [Example 121514], the “Fold Increase” value is on record as 1.172.
`COc1ccc2c(c1)C(=O)N(c1ccc3[nH]ccc3n1)C2` [Example 121515]: a half-maximal effect (EC50) was put at 222 nM and the “Fold Increase” value turned out to be 1.24.
For `COc1ccc2c(c1)CN(c1ccc3sccc3c1)C2=O` [Example 121643] the same measures were 45 nM and 1.778.
